These are literature values, as cited in patent US6384246B1, “Process for the preparation of maltol from plants belonging to the genus Abies” (Council of Scientific & Industrial Research, priority 2001, dated 2002).

The structures appear in SMILES notation.

The conditions of this data set: in ethylene glycol at ambient temperature.

On to `Cc1occc(=O)c1O` [maltol, 2-methyl-3-hydroxy-4-pyrone], for which the “solubility of maltol in ethylene glycol” value was “about 4%”.
